Test results as given in patent publication US7181884B2, “Materials and methods for controlling pests” (University of Florida Research Foundation, Inc., priority 2001, dated 2007).
Read-outs that look alike come from different tables or passages of the source.

What was measured:
Aedes aegypti larvae = test system: Aedes aegypti larvae
From the text: Another experiment assessed the specificity of L-methionine compared to L-proline on Aedes aegypti survival. Mosquito larvae (third or fourth instar; N=240) were placed in water containing various concentrations of L-proline or L-methionine, and fed ad libitum with commercial dried fish food applied to the water.

Manduca sexta larvae [1] = conditions: 10% wt./wt. of dry diet components
Method: The effect of feeding L-methionine to Manduca sexta larvae as they progressed from the first through fifth instar stages was determined. Colonies of hornworms are commonly reared for research by well-accepted techniques that account for environmental conditions such as feed availability, daily photoperiod, temperature, etc. The caterpillars were obtained from Carolina Biological Supply Co. and were placed in a lighted 27° C. incubator and fed hydrated reconstituted Dry Tobacco Hornworm Medium Stock No. L-908D (Carolina Biological Supply Co., Burlington, N.C.) supplemented with or without (control) L-methionine supplementation.
The effect of feeding L-methionine to Manduca sexta larvae as they progressed from the first through fifth instar stages was studied. In one study, the caterpillars were placed in a 27° C. incubator (photoperiod 16 hours light, 8 hours dark; relative humidity 60%) and fed a hydrated standard defined hornworm diet without (control) or with L-methionine supplementation (10% wt./wt. of dry components).

[2] = test system: Manduca sexta neonate larvae; conditions: all test doses, sprayed excised eggplant leaves, water vehicle
From the text: (§1) Another study evaluated the Manduca larvae mortality on excised leaves of host plant (eggplant; Solanum melongena) that were sprayed with various concentrations of L-methionine dissolved in deionized water. Manduca sexta neonate larvae were initially reared on eggplants in Plexiglas cylinders. Larvae (total N=64/treatment) were exposed to eggplant leaves that were sprayed (then dried) with aqueous solutions of methionine.

[3] = test system: eggplant; Solanum melongena; conditions: in vivo
From the text: as §1

Manduca sexta larvae [4] = conditions: Silwet-L77
Method: In one study, leaves of eggplant (Solanum melongena) were sprayed with a deionized water/Silwet-L77 solution containing varying concentrations of methionine, then allowed to dry. The Silwet-L77 was prepared according to the manufacture's instructions. Manduca sexta larvae (N=400; 80 per methionine dose) were then exposed to the eggplant leaves during 10 days, and surviving larvae were counted daily.

[5] = test system: Leptinotarsa decemlineata larvae; conditions: whole eggplants sprayed, water vehicle
From the text: Host growing whole eggplants in environmental growth chanmbers were sprayed with deionized water containing varying concentrations of methionine, then dried. Leptinotarsa decemlineata larvae (N=160 per group) were exposed to the leaves, and surviving larvae were counted daily.

[6] = test system: Colorado potato beetle, Leptinotarsa decemlineata; conditions: field
Method: Eggplant (Solanum melongena) growing in an outside test field were treated with various concentrations of aqueous L-methionine solutions applied to the leaves, which were allowed to dry. Then larvae of Colorado potato beetle, Leptinotarsa decemlineata, were applied to the plants, and surviving larvae were counted daily.

[7] = test system: eggplant (Solanum melongena); conditions: in vivo
From the text: Host eggplant (Solanum melongena) growing in fields were sprayed with deionized water containing varying concentrations of methionine, then dried.

CAATCH1 = CAATCH1 expressed in cell membranes; cited from earlier work

Structure (SMILES): O=C(O)[C@@H]1CCCN1 [L-proline, reference compound]
- effect on larvae survival compared to 0% methionine control (Aedes aegypti larvae; all test days, P≧0.05): no effect

Structure (SMILES): CSCC[C@H](N)C(=O)O [L-methionine]
- larval development (Manduca sexta larvae [1]): prevented all the caterpillars from advancing in development
- larvae killed (Manduca sexta larvae [1]; within 3 days): 100%
- larvae dead [2]: 100%
- plant viability [3]: plant viability was not affected
- time to reach complete mortality (Manduca sexta larvae [4]; leaves treated with 0.31% methionine): 4 days
- time to reach complete mortality (Manduca sexta larvae [4]; leaves treated with 0.45% (w/w) methionine): 2 days
- methionine concentration at which complete mortality was attained [5]: ≤ 0.15%
- efficacy of lowest concentration attempted ([6]; 0.06% (w/w on leaves)): efficacious
- larvae mortality versus concentration ([6]; various concentrations): increased in a dose-dependent manner
- fruit yield mean numbers or mean weights [7]: not significantly different from control
- larvae killed (Aedes aegypti larvae; 0.7% methionine in water, day 3): 100%
- LD50 (Aedes aegypti larvae; day 2): ~0.5 % methionine
- LD50 (Aedes aegypti larvae; day 3): ~0.3 % methionine
- CAATCH1-associated voltage-dependent amino acid-elicited steady state inward cation currents (CAATCH1): blocked
